Earlier results, collected in patent US20110200632A1, “ADJUVANTING MATERIAL” (Lipotek Pty Ltd., priority 2005, published 2011).

Tested on: splenocytes and macrophages
Details: versus Pam3Cys

CCCCCCCCCCCCCCCC(=O)OCC(CSC[C@H](N)C(=O)O)OC(=O)CCCCCCCCCCCCCCC (stereo partly drawn) [Pam2Cys, S-[2,3-bis(palmitoyloxy)propyl]cysteine]
stimulator of splenocytes and macrophages, compared with Pam3Cys: more potent
